From the supplement of paper PMC4862054
“And” between values parts separate entries of the source, which are not always exact repeats. Equal entries are not always repeated.

How the values were obtained:
Conditions in all cases: incubation time: 72 h
[1] = tested on: HCC1143; assay: normalised viability (% of control), CellTiter-Blue; higher = more viable cells (about 100 = DMSO control)
Outline: (§1)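 The reported quantity is normalised viability at a single listed concentration of the series. Compound in 5 µl medium was pre-dispensed into 384-well plates and 20 µl of breast cancer cell suspension was added for 72 h. A 2 h, 37 °C CellTiter-Blue step (2.5 µl) preceded fluorescence reading at 560/590 nm, and plates were normalised to vehicle (100) and a positive kill control (0).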

[2] = tested on: CAL-120; assay: as above
Outline: as §1

[3] = tested on: MFM-223; assay: as above
Outline: as §1

[4] = tested on: SK-BR-3; assay: as above
Outline: as §1

[5] = tested on: MDA-MB-453; assay: as above
Outline: as §1

[6] = tested on: DU-4475; assay: as above
Outline: as §1

[7] = tested on: CAL-85-1; assay: as above
Outline: as §1

[8] = tested on: CAL-148; assay: as above
Outline: as §1

[9] = tested on: MDA-MB-453; assay: as above; remark: listed apart in the source
Outline: as §1

[10] = tested on: HCC1143; assay: drug sensitivity score (DSS), CellTox Green (DSS (AUC-based score)); higher = stronger drug effect (viability inhibition or cytotoxicity); extreme values may be limits of the assay
Outline: (§2)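 The drug sensitivity score reflects the area under a fitted dose-response curve. To obtain it, breast cancer cells in 20 µl suspension were seeded into 384-well plates containing compound at 5 concentrations, 10-fold apart over a compound-specific 10,000-fold range, and incubated 72 h. CellTox Green fluorescence (485/520 nm) was read first and CellTiter-Glo luminescence second, after 10 min at room temperature. Each plate was normalised to 0.1 % DMSO and a positive kill control.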

[11] = tested on: DU-4475; assay: as above
Outline: as §2

[12] = tested on: CAL-120; assay: as above
Outline: as §2

[13] = tested on: CAL-51; assay: as above
Outline: as §2

[14] = tested on: CAL-85-1; assay: as above
Outline: as §2

[15] = tested on: MDA-MB-436; assay: as above
Outline: as §2

[16] = tested on: HCC1937; assay: as above
Outline: as §2

[17] = tested on: MFM-223; assay: as above
Outline: as §2

[18] = tested on: MCF-10A; assay: as above
Outline: as §2

[19] = tested on: BT-474; assay: as above
Outline: as §2

[20] = tested on: HDQ-P1; assay: as above
Outline: as §2

[21] = tested on: BT-549; assay: as above
Outline: as §2

[22] = tested on: CAL-148; assay: as above
Outline: as §2

[23] = tested on: MDA-MB-231; assay: as above
Outline: as §2

[24] = tested on: Hs578T; assay: as above
Outline: as §2

[25] = tested on: HCC1599; assay: as above
Outline: as §2

[26] = tested on: MDA-MB-453; assay: as above
Outline: as §2

[27] = tested on: MDA-MB-468; assay: as above
Outline: as §2

SMILES	normalised viability ([1]; 10000 nM)	normalised viability ([2]; 10000 nM) [%]	normalised viability ([3]; 10000 nM)	normalised viability ([4]; 10000 nM)	normalised viability ([5]; 100 nM)	normalised viability ([6]; 3000 nM)	normalised viability ([7]; 3000 nM)	normalised viability ([8]; 3000 nM)	normalised viability ([9]; 3000 nM)	drug sensitivity score [10]	drug sensitivity score [11]	drug sensitivity score [12]	drug sensitivity score [13]	drug sensitivity score [14]	drug sensitivity score [15]	drug sensitivity score [16]	drug sensitivity score [17]	drug sensitivity score [18]	drug sensitivity score [19]	drug sensitivity score [20]	drug sensitivity score [21]	drug sensitivity score [22]	drug sensitivity score [23]	drug sensitivity score [24]	drug sensitivity score [25]	drug sensitivity score [26]	drug sensitivity score [27]	normalised viability ([1]; 1000 nM) [%]	normalised viability ([2]; 1000 nM) [%]	normalised viability ([3]; 1000 nM) [%]	normalised viability ([4]; 1000 nM) [%]	normalised viability ([5]; 10 nM) [%]	normalised viability ([6]; 300 nM) [%]	normalised viability ([7]; 300 nM) [%]	normalised viability ([8]; 300 nM) [%]	normalised viability ([9]; 300 nM) [%]
O=C(O)CCCc1ccc(N(CCCl)CCCl)cc1 [Chlorambucil]	96%	91	85.8%	80.4%	114%	125%	97.7%	96.7%	108%	0	0	0	0	0	2.34	0	0	0	0	0	0	0	0	0	0	0	0									
CCCCCCCCc1ccc(CCC(N)(CO)CO)cc1 [Fingolimod]	69.5%	2.23	9.42%	3.17%	97.7%	117%	91.7%	88.8%	95.2%	0	0	0.861	1.3	7.94	2.64	17.9	0.724	11.1	5.23	2.47	1.17	0	6.51	1.46	0	1.86	6.79									
Cc1ccc(NC(=O)c2ccc(CN3CCN(C)CC3)cc2)cc1Nc1nccc(-c2cccnc2)n1 [Imatinib]	86.7% and 88.8%	114	105% and 98%	80.8% and 91.9%	104% and 99.3%	112% and 116%	96.1% and 95.3%	102% and 90.9%	86.2% and 83.6%	0	0	0	0	0	0	0	0	0	0	0	0	0	0	0.401	0	6.17	0									
C/C(=C\c1csc(C)n1)[C@@H]1C[C@@H]2O[C@]2(C)CCC[C@H](C)[C@H](O)[C@@H](C)C(=O)C(C)(C)[C@@H](O)CC(=O)O1 [Patupilone]										0.908	0	2.68	21	14.4	10.2	0	3	7.87	8.09	0	0	8.8	9.94	7.9	0	0	25.1	32	23.4	45.7	15.2	47.3	7.32	26.8	17.6	20.4
CN1CCN(CCOc2cc(OC3CCOCC3)c3c(Nc4c(Cl)ccc5c4OCO5)ncnc3c2)CC1 [Saracatinib]	46.2%	61.1	77.1%	39.7%	105%	120%	29.1%	65.9%	60.9%	0	0	0	6.5	6.93	9.13	0	0	0	1.96	2.22	0	0	0	0	0	0	0									
Cn1cncc1[C@@](N)(c1ccc(Cl)cc1)c1ccc2c(c1)c(-c1cccc(Cl)c1)cc(=O)n2C [Tipifarnib]	59.7%	32.7	29.7%	23.8%	73.6%	42%	65.2%	42.6%	50.1%	0	0	0	10.3	0.98	0	0	0	0	0	0	0	0	0	0	0	0	0									
O=C1NC(=O)[C@@H](c2cn3c4c(cccc24)CCC3)[C@@H]1c1c[nH]c2ccccc12 [Tivantinib]										0	0	1.28	2.14	5.35	0	0	0	0	0	0	0	7.13	3.62	5.63	0	0	0	55.2	29.7	57.8	21.5	107	102	68.8	97.9	49.5
CC[C@]1(O)C[C@H]2CN(CCc3c([nH]c4ccccc34)[C@@](C(=O)OC)(c3cc4c(cc3OC)N(C=O)[C@H]3[C@@](O)(C(=O)OC)[C@H](OC(C)=O)[C@]5(CC)C=CCN6CC[C@]43[C@@H]65)C2)C1 [Vincristine]	33.6%	20.6	20.5%	16.8%	30.8%	6.84%	38.1%	26.8%	30.5%	0	0	1.68	14.1	14.4	0	0	12.5	14.2	6.14	0	9.25	0	15.7	8.32	2.79	0	22.1	32.1	19.9	27.9	16.6	26.9	14.8	40.6	20.4	36
